Values joined by “and” are separate entries in the source; they are usually repeats but may differ in a detail not shown here. Equal values may be shown once.
Key:
Experiment in all cases: Kinase inhibition screen, cell-free 33P ATP assay at 10 μM
Type in all cases: biochemical
[1] = molecular target: 140 purified human kinases (Homo sapiens, UniProt Q14012); settings: for % Activity inhibition Mean / % Activity inhibition Run 1 / % Activity inhibition Run 2 / % Activity remaining Run 1 / % Activity remaining Run 2: 10 µM
Chain of 140 purified human kinases (Homo sapiens, UniProt Q14012) (Q14012 whole entry): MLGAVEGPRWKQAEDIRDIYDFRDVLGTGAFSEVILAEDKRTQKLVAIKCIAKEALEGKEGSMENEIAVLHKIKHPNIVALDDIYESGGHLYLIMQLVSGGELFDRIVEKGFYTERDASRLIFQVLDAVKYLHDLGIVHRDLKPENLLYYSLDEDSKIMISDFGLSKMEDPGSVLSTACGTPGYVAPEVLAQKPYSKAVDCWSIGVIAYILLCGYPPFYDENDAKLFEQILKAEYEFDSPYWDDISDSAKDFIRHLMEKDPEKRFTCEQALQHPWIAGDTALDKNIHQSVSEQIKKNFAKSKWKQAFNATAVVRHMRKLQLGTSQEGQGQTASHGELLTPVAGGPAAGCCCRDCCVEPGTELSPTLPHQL
Summary of the method: (§1)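 Radiometric ^33P ATP cell-free format with purified enzymes; both complexes run at 10 μM in duplicate, results plotted on a kinome map via HGNC symbols.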

[2] = molecular target: T1, 140 purified human kinases (Homo sapiens, UniProt Q9UHD2)
T1 sequence (Q9UHD2 1-729): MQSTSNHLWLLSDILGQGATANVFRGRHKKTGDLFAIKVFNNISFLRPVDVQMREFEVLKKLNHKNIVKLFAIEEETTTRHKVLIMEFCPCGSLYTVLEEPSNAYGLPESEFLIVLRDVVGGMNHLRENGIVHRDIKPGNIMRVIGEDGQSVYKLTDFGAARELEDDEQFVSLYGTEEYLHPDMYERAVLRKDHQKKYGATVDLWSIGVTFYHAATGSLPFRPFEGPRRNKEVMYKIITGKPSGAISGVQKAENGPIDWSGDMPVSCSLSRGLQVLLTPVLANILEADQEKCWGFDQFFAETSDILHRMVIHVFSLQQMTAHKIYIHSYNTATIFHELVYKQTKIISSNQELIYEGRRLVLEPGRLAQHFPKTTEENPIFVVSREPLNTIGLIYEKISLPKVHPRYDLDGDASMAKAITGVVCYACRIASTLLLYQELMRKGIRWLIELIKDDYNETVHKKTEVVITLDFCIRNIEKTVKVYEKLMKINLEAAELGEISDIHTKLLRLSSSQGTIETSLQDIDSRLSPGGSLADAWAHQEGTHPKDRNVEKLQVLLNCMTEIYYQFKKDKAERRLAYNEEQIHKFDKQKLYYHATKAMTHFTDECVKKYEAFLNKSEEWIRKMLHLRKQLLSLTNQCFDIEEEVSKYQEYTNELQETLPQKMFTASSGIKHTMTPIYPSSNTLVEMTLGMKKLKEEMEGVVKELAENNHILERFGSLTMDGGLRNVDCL
Summary of the method: as §1

[3] = molecular target: T2, 140 purified human kinases (Homo sapiens, UniProt O15530)
T2 sequence (O15530 1-556): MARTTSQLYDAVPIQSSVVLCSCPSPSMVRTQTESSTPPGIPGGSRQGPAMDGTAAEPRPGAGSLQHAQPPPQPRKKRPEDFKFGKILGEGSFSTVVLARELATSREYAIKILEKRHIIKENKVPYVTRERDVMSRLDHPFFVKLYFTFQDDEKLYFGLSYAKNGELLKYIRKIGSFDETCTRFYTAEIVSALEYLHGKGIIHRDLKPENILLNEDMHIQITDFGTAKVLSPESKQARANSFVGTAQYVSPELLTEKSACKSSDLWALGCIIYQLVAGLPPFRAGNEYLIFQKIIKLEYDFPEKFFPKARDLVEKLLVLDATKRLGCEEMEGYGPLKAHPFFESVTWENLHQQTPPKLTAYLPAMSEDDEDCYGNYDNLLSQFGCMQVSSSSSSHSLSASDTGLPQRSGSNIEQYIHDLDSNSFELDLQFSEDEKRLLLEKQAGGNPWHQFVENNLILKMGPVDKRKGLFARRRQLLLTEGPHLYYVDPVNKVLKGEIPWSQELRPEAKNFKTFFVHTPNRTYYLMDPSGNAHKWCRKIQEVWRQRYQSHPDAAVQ
Summary of the method: as §1

[4] = molecular target: T3, 140 purified human kinases (Homo sapiens, UniProt P54760)
T3 sequence (P54760 16-987): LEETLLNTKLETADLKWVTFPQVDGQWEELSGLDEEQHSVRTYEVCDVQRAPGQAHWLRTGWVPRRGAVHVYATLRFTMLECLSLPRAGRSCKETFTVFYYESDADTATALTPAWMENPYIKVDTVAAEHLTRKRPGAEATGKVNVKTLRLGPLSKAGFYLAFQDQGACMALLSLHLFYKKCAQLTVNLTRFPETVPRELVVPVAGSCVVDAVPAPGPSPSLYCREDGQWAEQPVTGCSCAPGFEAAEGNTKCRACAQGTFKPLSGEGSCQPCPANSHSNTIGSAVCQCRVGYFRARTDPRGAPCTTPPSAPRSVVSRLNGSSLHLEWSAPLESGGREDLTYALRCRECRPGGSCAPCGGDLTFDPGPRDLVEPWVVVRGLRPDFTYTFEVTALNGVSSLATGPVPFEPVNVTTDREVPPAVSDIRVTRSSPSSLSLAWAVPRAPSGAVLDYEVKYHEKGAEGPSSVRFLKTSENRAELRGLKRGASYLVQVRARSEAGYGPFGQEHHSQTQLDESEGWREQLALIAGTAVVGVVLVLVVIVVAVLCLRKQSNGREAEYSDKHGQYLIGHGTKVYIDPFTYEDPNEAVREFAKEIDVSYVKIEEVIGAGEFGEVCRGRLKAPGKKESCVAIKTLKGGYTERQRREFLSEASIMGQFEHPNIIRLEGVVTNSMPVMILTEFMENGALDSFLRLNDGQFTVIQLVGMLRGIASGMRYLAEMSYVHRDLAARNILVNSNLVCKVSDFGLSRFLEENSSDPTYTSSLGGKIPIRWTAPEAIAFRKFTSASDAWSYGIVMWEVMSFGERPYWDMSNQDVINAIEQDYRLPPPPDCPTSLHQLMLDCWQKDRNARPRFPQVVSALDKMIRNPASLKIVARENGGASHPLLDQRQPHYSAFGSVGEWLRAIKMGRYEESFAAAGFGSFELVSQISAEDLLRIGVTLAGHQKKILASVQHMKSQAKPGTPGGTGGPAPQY
Summary of the method: as §1

SMILES | % Inhibition, Mean ([1]; CAMK1) | mean % activity ([1]; CAMK1) | % Activity inhibition Mean ([1]; CAMK1) | % Activity inhibition Run 1 ([1]; CAMK1) | % Activity inhibition Run 2 ([1]; CAMK1) | % Activity remaining Run 1 ([1]; CAMK1) | % Activity remaining Run 2 ([1]; CAMK1) | % Inhibition, Mean ([2]; TBK1) | mean % activity ([2]; TBK1) | % Activation, Mean value ([3]; PDK1) | % Inhibition, Mean ([3]; PDK1) | mean % activity ([3]; PDK1) | % Inhibition, Mean ([4]; EPH-B4) | mean % activity ([4]; EPH-B4) | further results
CC(=O)[O-].CC(=O)[O-].CC(=O)[O-].CC(=O)[O-].CC(=O)[O-].CC(=O)[O-].[Zn+2].[Zn+2].[Zn+2].c1ccc(-c2csc(NCCN(CCNc3nc(-c4ccccn4)cs3)CCNc3nc(-c4ccccn4)cs3)n2)nc1.c1ccc(-c2csc(NCCN(CCNc3nc(-c4ccccn4)cs3)CCNc3nc(-c4ccccn4)cs3)n2)nc1 [[L2Zn3]6+] | 96% | 3.6% | 96.0% | 94% | 98% | 6% | 2% | 13% | 87% | 46% | -46% | 146% | 52% | 48% | % Inhibition, Run 1 / Run 2 ([1]; CAMK1): 94% and 98%; % activity ([1]; CAMK1, duplicate runs): 5.6% and 1.6%; % activity ([2]; TBK1, duplicate runs): 81% and 93%; % Activity Run 1 ([3]; PDK1, 10 µM): 131.0%; % Activity Run 2 ([3]; PDK1, 10 µM): 160.0%; % activity ([3]; PDK1, duplicate runs): 131% and 160%; % Inhibition, Run 1 / Run 2 ([4]; EPH-B4): 52%; % activity ([4]; EPH-B4, duplicate runs): 48%
[Cu+2].[Cu+2].[Cu+2].c1ccc(-c2csc(NCCN(CCNc3nc(-c4ccccn4)cs3)CCNc3nc(-c4ccccn4)cs3)n2)nc1.c1ccc(-c2csc(NCCN(CCNc3nc(-c4ccccn4)cs3)CCNc3nc(-c4ccccn4)cs3)n2)nc1 [[L2Cu3]6+] | 96% | 4.5% | 95.5% | 94.9% | 96.1% | 5.10% | 3.90% | 62% | 38% | 6.45% | -6.45% | 106% | 50% | 50% | % Inhibition Run 1 ([1]; CAMK1): 94.9%; % Inhibition Run 2 ([1]; CAMK1): 96.1%; % activity ([1]; CAMK1, Run 1): 5.1%; % activity ([1]; CAMK1, Run 2): 3.9%; % Inhibition Run 1 ([2]; TBK1): 60.3%; % Inhibition Run 2 ([2]; TBK1): 64%; % activity ([2]; TBK1, Run 1): 39.7%; % activity ([2]; TBK1, Run 2): 36%; % Inhibition Run 1 ([3]; PDK1): 12.4%; % Inhibition Run 2 ([3]; PDK1): -25.3%; % activity ([3]; PDK1, Run 1): 87.6%; % activity ([3]; PDK1, Run 2): 125.3%; % Inhibition Run 1 ([4]; EPH-B4): 53.6%; % Inhibition Run 2 ([4]; EPH-B4): 47.1%; % activity ([4]; EPH-B4, Run 1): 46.4%; % activity ([4]; EPH-B4, Run 2): 52.9%

— PMC8222254, “Self-assembly of an anion receptor with metal-dependent kinase inhibition and potent in vitro anti-cancer properties” (Nature Communications, 2021)
